Source: patent US6764768B2, “Controlled release composition” (Arch Development Corporation, priority 2001, dated 2004)

Columns and labels:
[1] = test system: streptavidin; assay: SPR measurement of streptavidin association with the biotin-presenting monolayer; type: binding; conditions: biotin 140 μM mixed with streptavidin before introduction to the SAM
From the text: The following sequence was used to measure the association of proteins to the monolayers: buffer (phosphate buffered saline, pH 7.4) was flowed over the monolayer for three minutes to establish a baseline; a solution of protein in the same buffer was flowed over the surface for eight minutes to observe binding; buffer was again flowed for four minutes to quantitate the amount of protein that remained bound. […] (SPR measures the angle of light (θ) reflected from the backside of the gold substrate that is a minimum in intensity. Changes in this angle (Δθ) are linearly related to the index of refraction of the solution above the surface and therefore to the density of adsorbed protein (Δθof 0.10°=1 ng/mm^2). Experiments show a change in θ immediately following protein injection due to differences in refractive index between the two solutions.) The change in resonance angle (Δθ) after streptavidin was flowed over the substrate corresponds to a final protein density of 1.1 ng/mm^2. The protein remained irreversibly bound because of the high affinity of the streptavidin-biotin complex.
Electrochemistry was performed in buffered water (PBS, pH 7.4) using the gold substrate as the working electrode, a platinum wire as the counter electrode, and a Ag/AgCl/KCl reference electrode—prior to mounting the substrate in a cartridge for analysis by SPR. […]

[2] = test system: Swiss 3T3 fibroblast cells; assay: Adhesion and electrically or peptide-triggered release of cells on patterned RGD monolayer; type: cell-based
Description: The substrate was patterned into two regions that each presented the RGD peptide at a density of less than 0.1% mixed with tri(ethylene glycol) groups. The pattern was formed by applying an alkanethiol solution (corresponding to FIG. 5A) for 5 min to a gold-coated glass substrate, half of which was blocked with a polydimethylsiloxane mask. Following rinsing, the mask was removed, and the substrate was incubated in a solution of a second alkanethiol (corresponding to FIG. 5B) for 6 h. In all cases, the monolayers were formed from ethanolic solutions containing a mixture of an alkanethiol substituted with tri(ethylene glycol) and an alkanethiol substituted with either RGD or the RGD containing alkanethiol of the present invention, in a ratio of 999: 1. The two regions differed only in the linkage used to tether the peptides to the monolayer (C. Roberts, C. S. Chen, M. Mrksich, V. Martichonok, D. E. Ingber, G. M. Whitesides, J. Am. Chem. Soc. 1998, 120, 6548-6555; and B. T. Houseman, M. Mrksich, J. Org. Chem. 1998, 63, 7552-7555).
This substrate was placed into cell culture media and a suspension of Swiss 3T3 fibroblast cells was added. The Swiss Albino 3T3 cells (ATCC, Rockville, Md.) were grown in Dulbecco's Modified Eagle Medium (DMEM) containing 10% fetal bovine serum and penicillin/streptomycin. All cultures were maintained at 37° C. in a humidified 10% CO2 atmosphere. […]

Compound | binding of streptavidin to the SAM when streptavidin was mixed with biotin [1] | cells released from the surface by soluble peptide ([2]; 2 mM in fresh media, 37° C. for 20 minutes, after electrical treatment) | detachment of cells by soluble peptide prior to electrical treatment ([2]; patterned substrate, both regions, prior to electrical treatment)
O=C(O)CCCC[C@@H]1SC[C@@H]2NC(=O)N[C@@H]21 [biotin] | no binding of the protein to the surface | – | –
Gly-Arg-Gly-Asp-Ser (GRGDS; printed: Gly-Arg-Gly-Asp-Ser) | – | greater than 95% | near complete detachment of cells from both regions
